US7129265B2, “Synergistic effects of amlodipine and atorvastatin metabolite as a basis for combination therapy” (priority 1999, dated 2006)

Legend:
[1] = Small angle X-ray diffraction analysis of membrane bilayer structure; assay type: physicochemical; conditions: drug to phospholipid 1:15; for overall membrane bilayer width, including surface hydration: without drug 55.5 Å
Procedure: The lipids (1-palmitoyl-2-oleoyl phosphatidylcholine and cholesterol) used for these samples were dissolved in HPLC-grade chloroform (10.0 mg/ml). Membrane vesicles were produced from these lipids by the same method as described for the peroxidation experiments. The final phospholipid concentration was 5.0 mg/ml buffer and the mole ratio of drug to phospholipid was 1:15. Membrane samples were oriented for diffraction analysis by subjecting them to centrifugation as previously described (Chester D W, Herbette L G, Mason R P, Joslyn A F, Triggle D J, Koppel D E. Diffusion of dihydropyridine calcium channel antagonists in cardiac sarcolemmal lipid multibilayers. Biophys. J. 1987; 52:1021–1030). Briefly, vesicles were placed in sedimentation cells that contained an aluminum foil substrate. The vesicles were sedimented in an SW-28 rotor (Beckman Instruments Fullerton, Calif.) at 35,000×g for 1.5 h at 5° C. Following centrifugation, the supernatant was removed from the pellets and the samples were then mounted on to curved glass supports. Samples were placed in sealed canisters to control relative humidity and temperature during the diffraction experiments, as previously described in detail (Chester D W, Herbette L G, Mason R P, Joslyn A F, Triggle D J, Koppel D E. Diffusion of dihydropyridine calcium channel antagonists in cardiac sarcolemmal lipid multibilayers. Biophys. J. 1987; 52: 1021–1030).
X-ray diffraction experiments were conducted by aligning the samples at grazing incidence with respect to a collimated, nickel-filtered monochromatic X-ray source (CuKα1.54 Å) produced by a high-brilliance rotating anode microfocus generator (Rigaku Rotaflex RU-200, Danvers, Mass.). The fixed geometry beam line consisted of a single, nickel-coated Franks mirror to define a line source where Kα and Kα are unresolved. […] The phases for the four-order data were determined by swelling analysis (Moody M F. X-ray diffraction pattern of nerve myelin: A method for determining the phases. Science 1963; 142:1173–117). […]

[2] = test system: human LDL; assay: LDL oxidation determination (copper-induced, TBARS formation); assay type: biochemical; conditions: 3.0 μM; 4 h incubation; copper 10.0 μM
Procedure: The ability of these agents to inhibit LDL peroxidation was assessed in vitro following addition of copper (10.0 μM) by measuring the levels of thiobarbituric reactive substances (TBARS), a marker of lipid peroxidation. […] The EDTA content of the LDL samples obtained from human plasma was removed by gel filtration with PD-10 Sephadex […] filtration columns; PBS (nitrogen purged) was used as the eluent. The LDL samples (50 μg of protein/mL) were then preincubated with or without drug (3.0 μM) for 30 mm at 37° C. Oxidation of LDL was then induced by the addition of 10.0 μM CuSO4. The time course of LDL oxidation, measured by TBARS formation, was followed for 6 h at 37° C. ([…]. Potentiation of free radical-induced lipid peroxidative injury to sarcolemmal membranes by lipid amphiphiles. J. Biol. Chem. 1986; 261:1153-1157). […] The protein content of the LDL was determined using the Coomassie Protein Plus assay kit from Pierce Chemical. A rapid and sensitive method for the quantitation of microgram quantities of protein utilizing the principle of protein-dye binding. Anal. Biochem. 1976; 72:248-254).

[3] = Membrane lipid peroxidation analysis (CHOD-Iodide assay) in membrane vesicles; assay type: biochemical
Procedure: In these experiments, oxidation occurred in a gradual, time-dependent manner that was measured spectrophotometrically over a 72 h period.
The separate and combined dose-dependent antioxidant activities of these agents were examined in membranes enriched with PUFA prepared at a 0.5 cholesterol to phospholipid mole ratio (Mason R P, Walter M F, Trumbore M W, Olmstead Jr. E G, Mason P E. Membrane antioxidant effects of the charged dihydropyridine calcium antagonist amlodipine. J. Mol Cell. Cardiol. 1999; 31:275–281). The lipid (dilinoleoyl phosphatidylcholine and cholesterol) used for these samples was dissolved in HPLC-grade chloroform (25.0 mg/ml). […]
Membrane lipid peroxidation was carried out at 37° C. in a shaking water bath without the addition of exogenous stimulants, as previously described in detail (Mason R P, Walter M F, Trumbore M W, Olmstead Jr. E G, Mason P E. Membrane antioxidant effects of the charged dihydropyridine calcium antagonist amlodipine. J. Mol. Cell. Cardiol. 1999; 31:275–281). […] The extent of membrane lipid peroxidation was measured by the CHOD-Iodide assay as previously described in detail (El-Saadani M, Esterbauer H, el-Sayed M, Goher M, Nassar A Y, Jurgens G. A spectrophotometric assay for lipid peroxides in serum lipoproteins using a commercially available reagent. J. Lipid. Res. 1989; 30:627–630). […]

SMILES	effect on membrane dimensions, in words ([1]; includes intrabilayer headgroup separation)	overall membrane bilayer width, including surface hydration [1]	TBARS formation compared to control lipid peroxidation (100%) [2]	inhibition of lipid peroxidation ([3]; 100.0 nM, membrane preparation enriched with cholesterol)	persistence of antioxidant effect over time ([3]; 10.0 μM, incubation up to 72 h)
CCOC(=O)C1=C(COCCN)NC(C)=C(C(=O)OC)C1c1ccccc1Cl (stereo not shown) [AML, amlodipine besylate]	did not significantly alter membrane dimensions	54.8 Å	93.3±6%		
CC(C)c1c(C(=O)Nc2ccccc2O)c(-c2ccccc2)c(-c2ccc(F)cc2)n1CCC(O)CC(O)CC(=O)O (stereo not shown) [ATM, ortho-hydroxy metabolite of atorvastatin]		58.0 Å	65.6±7%	9%	
Cc1c(C)c2c(c(C)c1O)CC[C@@](C)(CCC[C@H](C)CCC[C@H](C)CCCC(C)C)O2 [vitamin E, α-tocopherol]					could not be reproduced
